From publication PMC12090182, “Repurposing of the RIPK1-Selective Benzo[1,4]oxazepin-4-one Scaffold for the Development of a Type III LIMK1/2 Inhibitor” (ACS Chemical Biology, 2025)

Experiments:
Assay in all cases: scanMAX KINOMEscan (Eurofins)
Assay type in all cases: binding
ANKK1 = ANKK1 (Homo sapiens, UniProt Q8NFD2); conditions: 1000 nM, read-out: Percent Control
Description: (§1) Supplement cb5c00097_si_002.xlsx, sheet "Table S6 (Eurofins Selectivity)" | column: Percent Control

AXL = AXL (Homo sapiens, UniProt P30530); conditions: read-out: Percent Control
AXL, sequence (P30530 26-894): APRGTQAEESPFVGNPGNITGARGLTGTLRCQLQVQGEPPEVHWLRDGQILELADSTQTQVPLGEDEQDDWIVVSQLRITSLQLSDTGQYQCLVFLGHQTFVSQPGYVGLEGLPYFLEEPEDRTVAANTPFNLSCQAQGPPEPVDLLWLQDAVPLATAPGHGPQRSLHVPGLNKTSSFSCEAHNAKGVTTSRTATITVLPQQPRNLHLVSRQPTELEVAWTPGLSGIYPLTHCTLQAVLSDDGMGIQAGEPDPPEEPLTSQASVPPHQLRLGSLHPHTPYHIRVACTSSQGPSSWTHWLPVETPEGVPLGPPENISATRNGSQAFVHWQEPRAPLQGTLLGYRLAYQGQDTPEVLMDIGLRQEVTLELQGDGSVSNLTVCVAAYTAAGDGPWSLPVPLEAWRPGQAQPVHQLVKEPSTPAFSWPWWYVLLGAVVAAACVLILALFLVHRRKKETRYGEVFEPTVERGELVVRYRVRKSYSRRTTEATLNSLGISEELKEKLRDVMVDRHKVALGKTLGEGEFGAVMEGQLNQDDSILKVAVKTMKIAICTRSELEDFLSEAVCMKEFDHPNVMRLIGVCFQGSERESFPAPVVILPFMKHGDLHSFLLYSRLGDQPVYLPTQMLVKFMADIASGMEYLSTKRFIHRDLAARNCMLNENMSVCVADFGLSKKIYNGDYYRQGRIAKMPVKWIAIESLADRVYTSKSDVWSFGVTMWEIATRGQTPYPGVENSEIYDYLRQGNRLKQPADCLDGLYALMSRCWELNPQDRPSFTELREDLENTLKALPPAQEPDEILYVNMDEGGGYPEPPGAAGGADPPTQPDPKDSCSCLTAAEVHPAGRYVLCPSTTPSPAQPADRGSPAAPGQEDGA
Description: as §1

CAMK1B = CAMK1B (Homo sapiens, UniProt Q6P2M8); conditions: 1000 nM, read-out: Percent Control
Description: as §1

CDKL5 = CDKL5 (Homo sapiens, UniProt O76039); conditions: read-out: Percent Control
CDKL5, sequence (O76039 whole entry): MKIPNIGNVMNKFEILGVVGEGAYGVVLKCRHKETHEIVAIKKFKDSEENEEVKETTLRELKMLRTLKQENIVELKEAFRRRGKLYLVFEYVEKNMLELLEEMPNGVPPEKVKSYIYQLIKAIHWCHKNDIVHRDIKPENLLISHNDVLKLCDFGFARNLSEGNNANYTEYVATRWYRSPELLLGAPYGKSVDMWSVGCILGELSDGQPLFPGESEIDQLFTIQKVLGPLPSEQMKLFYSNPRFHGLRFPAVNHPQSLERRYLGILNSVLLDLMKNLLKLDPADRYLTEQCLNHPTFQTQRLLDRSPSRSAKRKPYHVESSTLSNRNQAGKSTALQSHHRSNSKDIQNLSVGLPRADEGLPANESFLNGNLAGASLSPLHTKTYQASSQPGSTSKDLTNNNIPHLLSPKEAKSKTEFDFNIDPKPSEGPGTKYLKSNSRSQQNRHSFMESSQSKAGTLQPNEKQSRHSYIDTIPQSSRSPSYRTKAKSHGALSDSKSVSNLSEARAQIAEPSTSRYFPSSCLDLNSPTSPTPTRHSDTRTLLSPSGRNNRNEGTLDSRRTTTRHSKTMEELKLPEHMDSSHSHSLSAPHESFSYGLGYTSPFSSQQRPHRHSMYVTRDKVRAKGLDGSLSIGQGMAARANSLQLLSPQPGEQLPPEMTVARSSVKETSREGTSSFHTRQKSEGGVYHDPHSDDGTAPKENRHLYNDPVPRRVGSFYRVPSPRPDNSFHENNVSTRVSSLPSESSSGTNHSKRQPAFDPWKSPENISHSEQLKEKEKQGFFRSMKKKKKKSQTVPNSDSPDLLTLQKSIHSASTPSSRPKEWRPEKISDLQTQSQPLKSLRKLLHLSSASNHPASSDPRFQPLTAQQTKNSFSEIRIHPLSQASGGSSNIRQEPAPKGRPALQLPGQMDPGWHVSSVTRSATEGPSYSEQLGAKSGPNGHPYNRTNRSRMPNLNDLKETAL
Description: as §1

CSNK1D = CSNK1D (Homo sapiens, UniProt P48730); conditions: 1000 nM, read-out: Percent Control
Description: as §1

DAPK1 = DAPK1 (Homo sapiens, UniProt P53355); conditions: 1000 nM, read-out: Percent Control
Description: as §1

DRAK2 = DRAK2 (Homo sapiens, UniProt O94768); conditions: 1000 nM, read-out: Percent Control
Description: as §1

DYRK2 = DYRK2 (Homo sapiens, UniProt Q92630); conditions: read-out: Percent Control
DYRK2, sequence (Q92630 whole entry): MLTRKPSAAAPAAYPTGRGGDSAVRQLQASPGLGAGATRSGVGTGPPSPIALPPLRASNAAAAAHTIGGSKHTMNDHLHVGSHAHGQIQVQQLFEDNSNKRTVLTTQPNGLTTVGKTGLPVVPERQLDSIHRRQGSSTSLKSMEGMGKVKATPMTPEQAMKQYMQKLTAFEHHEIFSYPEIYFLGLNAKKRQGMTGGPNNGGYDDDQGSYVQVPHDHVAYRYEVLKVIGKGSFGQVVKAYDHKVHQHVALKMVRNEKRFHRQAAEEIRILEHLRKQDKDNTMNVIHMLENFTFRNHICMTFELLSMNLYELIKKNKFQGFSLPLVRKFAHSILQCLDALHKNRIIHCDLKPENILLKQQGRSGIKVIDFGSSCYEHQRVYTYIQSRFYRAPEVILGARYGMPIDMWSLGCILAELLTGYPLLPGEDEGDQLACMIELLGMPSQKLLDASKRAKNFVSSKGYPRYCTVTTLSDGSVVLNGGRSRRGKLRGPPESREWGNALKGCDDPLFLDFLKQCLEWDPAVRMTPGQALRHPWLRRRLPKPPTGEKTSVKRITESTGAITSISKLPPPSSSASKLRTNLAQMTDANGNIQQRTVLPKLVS
Description: as §1

EPHB3 = EPHB3 (Homo sapiens, UniProt P54753); conditions: read-out: Percent Control
EPHB3, sequence (P54753 34-998): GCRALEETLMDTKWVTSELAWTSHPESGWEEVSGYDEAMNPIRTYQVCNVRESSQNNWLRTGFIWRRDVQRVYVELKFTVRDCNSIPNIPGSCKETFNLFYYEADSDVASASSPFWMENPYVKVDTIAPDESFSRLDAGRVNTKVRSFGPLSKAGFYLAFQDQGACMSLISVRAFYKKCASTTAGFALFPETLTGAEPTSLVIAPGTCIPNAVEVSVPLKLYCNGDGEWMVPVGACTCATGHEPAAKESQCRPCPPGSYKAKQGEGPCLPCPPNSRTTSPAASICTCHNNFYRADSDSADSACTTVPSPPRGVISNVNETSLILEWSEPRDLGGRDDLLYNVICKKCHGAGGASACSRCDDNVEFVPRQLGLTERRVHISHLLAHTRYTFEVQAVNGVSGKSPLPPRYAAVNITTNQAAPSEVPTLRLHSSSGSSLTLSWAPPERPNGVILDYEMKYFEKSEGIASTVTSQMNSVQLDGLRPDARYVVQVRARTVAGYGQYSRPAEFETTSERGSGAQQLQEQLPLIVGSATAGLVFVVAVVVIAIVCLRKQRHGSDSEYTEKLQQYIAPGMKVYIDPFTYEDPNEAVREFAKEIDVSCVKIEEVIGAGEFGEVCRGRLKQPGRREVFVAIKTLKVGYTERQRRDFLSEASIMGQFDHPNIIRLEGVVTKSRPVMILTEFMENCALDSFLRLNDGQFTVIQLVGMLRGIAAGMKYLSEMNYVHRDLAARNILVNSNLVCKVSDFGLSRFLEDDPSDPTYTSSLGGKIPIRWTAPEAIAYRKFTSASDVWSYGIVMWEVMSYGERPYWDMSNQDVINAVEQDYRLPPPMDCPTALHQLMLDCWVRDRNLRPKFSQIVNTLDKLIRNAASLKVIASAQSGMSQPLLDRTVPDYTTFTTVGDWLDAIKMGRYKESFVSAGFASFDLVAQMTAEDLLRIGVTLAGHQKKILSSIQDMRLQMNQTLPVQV
Description: as §1

ERK5 = ERK5 (Homo sapiens, UniProt Q13164); conditions: 1000 nM, read-out: Percent Control
Description: as §1

FES = FES (Homo sapiens, UniProt P07332); conditions: read-out: Percent Control
FES, sequence (P07332 whole entry): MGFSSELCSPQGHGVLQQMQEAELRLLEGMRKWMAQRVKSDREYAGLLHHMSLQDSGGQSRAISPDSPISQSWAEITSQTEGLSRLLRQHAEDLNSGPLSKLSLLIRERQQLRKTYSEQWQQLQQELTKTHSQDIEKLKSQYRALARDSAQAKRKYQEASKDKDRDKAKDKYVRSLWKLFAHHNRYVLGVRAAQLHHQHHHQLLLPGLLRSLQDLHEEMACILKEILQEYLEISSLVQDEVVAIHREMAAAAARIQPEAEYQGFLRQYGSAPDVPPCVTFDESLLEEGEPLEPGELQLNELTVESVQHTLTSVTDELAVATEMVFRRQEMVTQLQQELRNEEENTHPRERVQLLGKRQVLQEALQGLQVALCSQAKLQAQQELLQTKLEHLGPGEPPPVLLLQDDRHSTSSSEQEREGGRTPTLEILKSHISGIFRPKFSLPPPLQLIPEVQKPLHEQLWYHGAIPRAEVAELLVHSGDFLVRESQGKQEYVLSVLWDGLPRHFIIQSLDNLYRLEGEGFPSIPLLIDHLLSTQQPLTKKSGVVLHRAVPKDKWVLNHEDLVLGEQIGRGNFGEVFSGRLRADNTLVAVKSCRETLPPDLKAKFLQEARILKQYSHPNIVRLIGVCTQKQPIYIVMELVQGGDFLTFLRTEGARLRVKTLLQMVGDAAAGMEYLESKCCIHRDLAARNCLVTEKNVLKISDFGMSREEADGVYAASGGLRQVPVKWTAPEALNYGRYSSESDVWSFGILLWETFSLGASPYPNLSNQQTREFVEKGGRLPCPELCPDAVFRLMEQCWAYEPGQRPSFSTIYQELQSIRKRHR
Description: as §1

HIPK2 = HIPK2 (Homo sapiens, UniProt Q9H2X6); conditions: 1000 nM, read-out: Percent Control
Description: as §1

IKK-epsilon = IKK-epsilon (Homo sapiens, UniProt Q14164); conditions: 1000 nM, read-out: Percent Control
Description: as §1

LTK = LTK (Homo sapiens, UniProt P29376); conditions: 1000 nM, read-out: Percent Control
Description: as §1

MAPKAPK5 = MAPKAPK5 (Homo sapiens, UniProt Q8IW41); conditions: compound concentration 100 nM; Entrez MAPKAPK5; read-out: Percent Control
Description: as §1

MEK6 = MEK6 (Homo sapiens, UniProt P52564); conditions: compound concentration 100 nM; Entrez MAP2K6; read-out: Percent Control
Description: as §1

MINK = MINK (Homo sapiens, UniProt Q8N4C8); conditions: 1000 nM, read-out: Percent Control
Description: as §1

MKK7 = MKK7 (Homo sapiens, UniProt O14733); conditions: read-out: Percent Control
MKK7, sequence (O14733 whole entry): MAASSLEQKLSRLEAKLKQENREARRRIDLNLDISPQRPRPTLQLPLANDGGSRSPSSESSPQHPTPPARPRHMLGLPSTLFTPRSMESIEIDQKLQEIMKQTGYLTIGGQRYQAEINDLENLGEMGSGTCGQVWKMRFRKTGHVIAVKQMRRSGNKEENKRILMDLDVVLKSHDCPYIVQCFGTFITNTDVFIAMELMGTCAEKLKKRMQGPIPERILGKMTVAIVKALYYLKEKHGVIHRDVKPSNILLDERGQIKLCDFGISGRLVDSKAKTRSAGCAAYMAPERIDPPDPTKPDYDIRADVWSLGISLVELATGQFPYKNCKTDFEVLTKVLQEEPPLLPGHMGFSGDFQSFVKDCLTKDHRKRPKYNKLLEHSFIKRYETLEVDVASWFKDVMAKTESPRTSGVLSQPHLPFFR
Description: as §1

MST1 = MST1 (Homo sapiens, UniProt Q13043); conditions: 1000 nM, read-out: Percent Control
Description: as §1

NEK7 = NEK7 (Homo sapiens, UniProt Q8TDX7); conditions: 1000 nM, read-out: Percent Control
Description: as §1

OSR1 = OSR1 (Homo sapiens, UniProt O95747); conditions: 1000 nM, read-out: Percent Control
Description: as §1

PCTK1 = PCTK1 (Homo sapiens, UniProt Q00536); conditions: compound concentration 100 nM; Entrez CDK16; read-out: Percent Control
Description: as §1

PIP5K2C = PIP5K2C (Homo sapiens, UniProt Q8TBX8); conditions: 1000 nM, read-out: Percent Control
Description: as §1

PLK3 = PLK3 (Homo sapiens, UniProt Q9H4B4); conditions: compound concentration 100 nM; Entrez PLK3; read-out: Percent Control
Description: as §1

ROS1 = ROS1 (Homo sapiens, UniProt P08922); conditions: 1000 nM, read-out: Percent Control
Description: as §1

[1] = target: RSK3(Kin.Dom.2-C-terminal) (Homo sapiens, UniProt Q15349); conditions: compound concentration 100 nM; Entrez RPS6KA2; read-out: Percent Control
RSK3(Kin.Dom.2-C-terminal), sequence (Q15349 415-672): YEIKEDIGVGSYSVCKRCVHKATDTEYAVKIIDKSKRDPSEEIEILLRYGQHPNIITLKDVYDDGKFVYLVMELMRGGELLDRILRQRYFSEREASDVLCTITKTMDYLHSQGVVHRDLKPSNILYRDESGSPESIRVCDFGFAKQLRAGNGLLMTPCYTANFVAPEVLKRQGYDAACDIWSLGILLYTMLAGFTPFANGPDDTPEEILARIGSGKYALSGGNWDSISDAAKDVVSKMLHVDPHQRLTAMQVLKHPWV
Description: as §1

STK39 = STK39 (Homo sapiens, UniProt Q9UEW8); conditions: 1000 nM, read-out: Percent Control
Description: as §1

SYK = SYK (Homo sapiens, UniProt P43405); conditions: 1000 nM, read-out: Percent Control
Description: as §1

TAOK2 = TAOK2 (Homo sapiens, UniProt Q9UL54); conditions: 1000 nM, read-out: Percent Control
Description: as §1

TGFBR1 = TGFBR1 (Homo sapiens, UniProt P36897); conditions: compound concentration 100 nM; Entrez TGFBR1; read-out: Percent Control
Description: as §1

TLK1 = TLK1 (Homo sapiens, UniProt Q9UKI8); conditions: compound concentration 100 nM; Entrez TLK1; read-out: Percent Control
Description: as §1

TTK = TTK (Homo sapiens, UniProt P33981); conditions: 1000 nM, read-out: Percent Control
Description: as §1

VEGFR2 = VEGFR2 (Homo sapiens, UniProt P35968); conditions: 1000 nM, read-out: Percent Control
Description: as §1

p38-alpha = p38-alpha (Homo sapiens, UniProt Q16539); conditions: compound concentration 100 nM; Entrez MAPK14; read-out: Percent Control
Description: as §1

p38-beta = p38-beta (Homo sapiens, UniProt Q15759); conditions: 1000 nM, read-out: Percent Control
Description: as §1

p38-delta = p38-delta (Homo sapiens, UniProt O15264); conditions: compound concentration 100 nM; Entrez MAPK13; read-out: Percent Control
Description: as §1

`CN1C(=O)[C@@H](N2CCc3c(nn(Cc4ccccc4)c3C(N)=O)C2=O)COc2cc(Cl)ccc21` [Compound 10, (S)-2-benzyl-6-(8-chloro-5-methyl-4-oxo-2,3,4,5-tetrahydrobenzo[b][1,4]oxazepin-3-yl)-7-oxo-4,5,6,7-tetrahydro-2H-pyrazolo[3,4-c]pyridine-3-carboxamide] gave a remaining binding at 1 µM (ANKK1) of 80%, a remaining binding at 1 µM (AXL; 1000 nM) of 100% and a remaining binding at 0.1 µM (AXL; compound concentration 100 nM, Entrez AXL) of 95%. The remaining binding at 1 µM (CAMK1B) was 91%, the remaining binding at 1 µM (CDKL5; 1000 nM) was 100% and the remaining binding at 0.1 µM (CDKL5; compound concentration 100 nM, Entrez CDKL5) was 100%. The remaining binding at 1 µM (CSNK1D) was 87%, the remaining binding at 1 µM (DAPK1) was 96% and the remaining binding at 1 µM (DRAK2) was 82%. The remaining binding at 1 µM (DYRK2; 1000 nM) was 100%, the remaining binding at 0.1 µM (DYRK2; compound concentration 100 nM, Entrez DYRK2) was 100% and the remaining binding at 1 µM (EPHB3; 1000 nM) was 100%. It also gave a remaining binding at 0.1 µM (EPHB3; compound concentration 100 nM, Entrez EPHB3) of 71%, a remaining binding at 1 µM (ERK5) of 86% and a remaining binding at 1 µM (FES; 1000 nM) of 100%. For the same compound, the remaining binding at 0.1 µM (FES; compound concentration 100 nM, Entrez FES) was 100%, the remaining binding at 1 µM (HIPK2) was 81% and the remaining binding at 1 µM (IKK-epsilon) was 75%. For the same compound, the remaining binding at 1 µM (LTK) was 86%, the remaining binding at 0.1 µM (MAPKAPK5) was 96% and the remaining binding at 0.1 µM (MEK6) was 88%. It also gave a remaining binding at 1 µM (MINK) of 95%, a remaining binding at 1 µM (MKK7; 1000 nM) of 99% and a remaining binding at 0.1 µM (MKK7; compound concentration 100 nM, Entrez MAP2K7) of 91%. It also gave a remaining binding at 1 µM (MST1) of 92%, a remaining binding at 1 µM (NEK7) of 93% and a remaining binding at 1 µM (OSR1) of 74%. The remaining binding at 0.1 µM (PCTK1) was 100%, the remaining binding at 1 µM (PIP5K2C) was 92% and the remaining binding at 0.1 µM (PLK3) was 86%. For the same compound, the remaining binding at 1 µM (ROS1) was 88%, the remaining binding at 0.1 µM [1] was 100% and the remaining binding at 1 µM (STK39) was 84%. It also gave a remaining binding at 1 µM (SYK) of 95%, a remaining binding at 1 µM (TAOK2) of 90% and a remaining binding at 0.1 µM (TGFBR1) of 100%. The remaining binding at 0.1 µM (TLK1) was 88%, the remaining binding at 1 µM (TTK) was 93% and the remaining binding at 1 µM (VEGFR2) was 92%. It also gave a remaining binding at 0.1 µM (p38-alpha) of 100%, a remaining binding at 1 µM (p38-beta) of 97% and a remaining binding at 0.1 µM (p38-delta) of 79%.
